Earlier results on one compound are cited in patent US20110009340A1, “COMBINATION OF AN IRON CHELATOR AND AN IMMUNOSUPPRESSANT AND USE THEREOF” (NOVARTIS AG, priority 2008, published 2011).

Each structure is given as a SMILES string.

`CC(=O)N(O)CCCCCNC(=O)CCC(=O)N(O)CCCCCNC(=O)CCC(=O)N(O)CCCCCN.CS(=O)(=O)O` [Deferoxamine mesylate USP, N-[5-[3-[(5-aminopentyl)hydroxycarbamoyl]propionamido]pentyl]-3-[[5-(N-hydroxyacetamido)pentyl]carbamoyl]propionohydroxamic acid monomethanesulfonate (salt)]: the solubility in methanol entry (methanol) is “slightly soluble”. In addition, for the setting “water”, the solubility in water result is on record as “freely soluble”.
